Data reported in patent publication US8067418B2, “Tricyclic angiotensin II agonists” (Vicore Pharma AB, priority 2005, dated 2011).

Legend:
[1] = tested on: duodenal mucosa; assay: Test C: duodenal mucosal alkaline secretion assay; format: in vivo; details: co-administration with title compounds of the Examples, anaesthetised rats
Source text: Duodenal Mucosal Alkaline Secretion Assay
Compounds were exposed to the duodenal mucosa in barbiturate-anaesthetised rats prepared for in situ titration of duodenal mucosal alkaline secretion, according to the methodology described by Flemström et al in Am. J. Physiol. (1982) 243, G348.

[2] = target: T1, AT2 receptor (Sus scrofa, UniProt A0A4X1W622); details: read-out: dissociation constant (Kd) at AT2 receptor; Scatchard analysis, porcine myometrial membranes, [L]=0.057 nM
T1 sequence (A0A4X1W622 1-362): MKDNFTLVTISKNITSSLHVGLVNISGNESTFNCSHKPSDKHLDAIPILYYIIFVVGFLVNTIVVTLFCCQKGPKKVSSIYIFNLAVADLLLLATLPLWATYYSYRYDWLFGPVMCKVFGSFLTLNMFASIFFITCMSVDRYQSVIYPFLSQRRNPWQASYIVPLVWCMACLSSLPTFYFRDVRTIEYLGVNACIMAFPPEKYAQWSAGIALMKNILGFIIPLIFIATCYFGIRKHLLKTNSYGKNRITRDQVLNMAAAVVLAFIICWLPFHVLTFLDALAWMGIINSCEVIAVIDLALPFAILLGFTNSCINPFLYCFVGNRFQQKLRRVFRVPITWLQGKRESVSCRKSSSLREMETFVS
Procedure: Myometrial membranes were prepared from porcine uteri according to the method by Nielsen et al (Clin. Exp. Pharm. Phys. (1997) 24, 309). […] Samples were incubated at 25° C. for 1 h, and binding was terminated by filtration through Whatman GF/B glass-fiber filter sheets using a Brandel cell harvester. The filters were washed with 3×3 mL of Tris-HCl (pH 7.4) and transferred to tubes. The radioactivity was measured using a gamma counter. […] The binding data were best fitted with a one-site fit. All experiments were performed at least in triplicate.

Molecule | effect of co-administration on the mucosal alkalisation stimulated by title compounds [1] | Kd [2] [nM]
Cc1cc(Cn2cnc3c2C[C@@H](C(=O)O)N(C(=O)C(c2ccccc2)c2ccccc2)C3)ccc1N(C)C [PD123319] | blocked | –
Asp^1-Arg^2-Val^3-Tyr^4-Ile^5-His^6-Pro^7-Phe^8 [Ang II] | – | 0.7 ± 0.1
